Like-named read-outs stand apart in the source and are kept apart here.
How the values were obtained:
[1] = target: T1, HIV-1 protease (wild type) (Human immunodeficiency virus type 1 group M subtype B, UniProt P04585); assay: Protease Inhibition Assay (Pepcleave), inhibition of microbial expressed HIV protease; type: biochemical
T1 construct: made in house; host or cells: Escherichia coli
Procedure: Assay for Inhibition of Microbial Expressed HIV Protease
Inhibition studies of the reaction of the protease (which was expressed in Eschericia coli) with a peptide substrate [Val-Ser-Gln-Asn-(betanaphtyl)Ala-Pro-Ile-Val]. The inhibitor is first preincubated with the HIV-1 protease (wild type) enzyme in assay buffer (50 mM sodium acetate, pH 5.5, 100 mM NaCl, and 0.1% BSA) for 30 minutes at room temperature. Substrate is added to 400 micromolar in a total volume of 80 microliters containing 10 picomolar HIV-1 protease and the reaction is incubated for 1 hour at 30° C. The reaction is quenched with the addition of 120 microliters of 10% phosphoric acid. The product formation is determined after separation of product and substrate on a Zorbax Eclipse XDB-C18 column connected to an Agilent 1100 high performance liquid chromatography system with fluorescence detection (excitation 270 nanometer and emission 330 nanometer). Alternatively, the inhibitor is preincubated with enzyme and substrate as described above, but in a total volume of 20 microliters containing 20 picomolar HIV-1 protease and the reaction is incubated for 1 hour at 30° C. The reaction is quenched with the addition of 30 microliters of 1 micromolar indinavir (indinavir is also used as an internal standard), and the product formation is determined after separation of product and substrate on a Zorbax Eclipse XDB-C18 column connected to an API 4000 mass spectrometer (Applied Biosystems) with multiple reaction monitoring (transitions were 644.5/428.9 and 615.4/422.2 (M1/M3) for product and indinavir respectively). The extent of inhibition of the reaction is determined from the peak area of the products. HPLC of the products, independently synthesized, provided quantitation standards and confirmation of the product composition.
Protease Inhibition Assay (“Pepcleave”) data were collected based on the wild-type HIV-1 protease enzyme. The assay monitors the cleavage of a 8-mer peptide (VSQN[β-Nal]PIV) where the tyrosine at P1 position is replaced by β-Naphthyl-alanine. Upon cleavage of the peptide by HIV-1 protease, the product is separated from substrate by HPLC column and detected at Ex.=270 nm/Em=330 nm.

[2] = system: human immunodeficiency virus type 1; assay: Acute Infection Assay (Spread); type: cell-based, HIV-1; details: Human immunodeficiency virus 1; 10% FBS; mean of at least two independent experiments; read-out: Spread IC95
Source text: Acute Infection Assay (“Spread”) data were generated in 10% FBS, and according to the methods disclosed by J. P. Vacca et al, “L-735,524: An orally bioavailable human immunodeficiency virus type 1 protease inhibitor,” Proc. Nati. Acad. Sci. USA, Vol. 91, pp. 4096-4100 (April 1994).

[3] = wild-type HIV-1 protease, mean of at least two independent experiments, read-out: Pepcleave Enzyme inhibition IC50

SMILES	IC50 [1, 3] [nM]	IC95 [2] [nM]	IC50 [1] [nM]
[2H]C([2H])([2H])C([2H])(C([2H])([2H])[2H])C([2H])([2H])N([C@H](CO)CSc1ccncc1NC(=O)[C@@H](NC(=O)OC)C(c1ccccc1)c1ccccc1)S(=O)(=O)c1ccc2ncsc2c1 [Example 25, N-[4-({(2R)-2-[(1,3-benzothiazol-6-ylsulfonyl)(2-methylpropyld7)amino)-3-hydroxypropyl}sulfanyl)pyridin-3-yl]-Nα-(methoxycarbonyl)-β-phenyl-L-phenylalaninamide]	4.8	1150	–
COC(=O)N[C@H](C(=O)Nc1cnccc1SC[C@@H](CO)N(Cc1cn(C)nc1C)S(=O)(=O)c1ccc2ncsc2c1)C(c1ccccc1)c1ccccc1 [Example 26, N-(4-{[(2R)-2-{(1,3-benzothiazol-6-ylsulfonyl)[(1,3-dimethyl-1H-pyrazol-4-yl)methyl]amino)-3-hydroxypropyl)sulfanyl}pyridin-3-yl)-Nα-(methoxycarbonyl)-β-phenyl-L-phenylalaninamide]	0.4	1260	–
COC(=O)N[C@H](C(=O)Nc1cnccc1SC[C@@H](CO)N(Cc1cnoc1)S(=O)(=O)c1ccc2ncsc2c1)C(c1ccccc1)c1ccccc1 [Example 27, N-[4-({(2R)-2-[(1,3-benzothiazol-6-ylsulfonyl)(isoxazol-4-ylmethyl)amino]-3-hydroxypropyl}sulfanyl)pyridin-3-yl]-Nα-(methoxycarbonyl)-β-phenyl-L-phenylalaninamide]	6.9	1500	–
COC(=O)N[C@H](C(=O)Nc1ccccc1SC[C@@H](CO)N(CCC(C)C)S(=O)(=O)c1ccc(N)cc1)C(c1ccccc1)c1ccccc1 [Example 28, N-(2-{[(2R)-2-{[(4-aminophenyl)sulfonyl](3-methylbutyl)amino}-3-hydroxypropyl]sulfanyl}phenyl)-Nα-(methoxycarbonyl)-β-phenyl-L-phenylalaninamide]	0.1	194	–
COC(=O)N[C@H](C(=O)Nc1ccccc1S(=O)(=O)C[C@@H](CO)N(CCC(C)C)S(=O)(=O)c1ccc(N)cc1)C(c1ccccc1)c1ccccc1 [Example 29, N-(2-{[(2R)-2-{[(4-aminophenyl)sulfonyl)(3-methylbutyl)amino}-3-hydroxypropyl]sulfonyl}phenyl)-Nα-(methoxycarbonyl)-β-phenyl-L-phenyl alaninamide]	2.9	1250	–
COC(=O)N[C@H](C(=O)Nc1ccccc1[S+]([O-])C[C@@H](CO)N(CCC(C)C)S(=O)(=O)c1ccc(N)cc1)C(c1ccccc1)c1ccccc1 (stereo partly drawn) [Example 30, N-(2-{[(2R)-2-{[(4-aminophenyl)sulfonyl](3-methylbutyl)amino}-3-hydroxypropyl]sulfinyl}phenyl)-Nα-(methoxycarbonyl)-β-phenyl-L-phenyl alaninamide]	2.1	1780	–
COC(=O)N[C@H](C(=O)Nc1cccc(C[C@@H](CO)N(CCC(C)C)S(=O)(=O)c2ccc(N)cc2)c1)C(c1ccccc1)c1ccccc1 [Example 31, N-{3-[(2S)-2-{[(4-aminophenyl)sulfonyl](3-methylbutyl)amino}-3-hydroxypropyl]phenyl}-Nα-(methoxycarbonyl)-β-phenyl-L-phenylalaninamide]	3.7	1260	–
COC(=O)N[C@H](C(=O)Nc1cccc(C[C@@H](CO)N(CCC(C)C)S(=O)(=O)c2ccc(CO)cc2)c1)C(c1ccccc1)c1ccccc1 [Example 32, N-(3-{(2S)-3-hydroxy-2-[{[4-(hydroxymethyl)phenyl]sulfonyl}(3-methylbutyl)amino]propyl}phenyl)-Nα-(methoxycarbonyl)-β-phenyl-L-phenylalaninamide]	–	1740	2.4

From US9187415B2, “Sulfonamides as HIV protease inhibitors” (Merck Canada Inc., priority 2010, dated 2015)
